Measured values as given in patent publication US5334596A, “Fibrinogen receptor antagonists” (Merck & Co., Inc., priority 1993, dated 1994).

System: gel-filtered human platelets
Assay: ADP-stimulated platelet aggregation (gel-filtered human platelets, fibrinogen, Ca2+)
Type: cell-based
Conditions: gel-filtered human platelets 2×10^8 per ml, fibrinogen 100 ug/ml, Ca2+ 1 mM, 10 mM ADP, 37° C., read-out: IC50 (inhibition of platelet aggregation by 50% relative to a control lacking the compound)
Method: Platelet aggregation is measured at 37° C. in a Chronolog aggregometer. The reaction mixture contains gel-filtered human platelets (2×10^8 per ml), fibrinogen (100 micrograms per ml (ug/ml)), Ca^2+ (1 mM), and the compound to be tested. The aggregation is initiated by adding […] ADP 1 minute after the other components are added. The reaction is then allowed to proceed for at least 2 minutes. The extent of inhibition of aggregation is expressed as the percentage of the rate of aggregation observed in the absence of inhibitor. The IC50 is the dose of a particular compound inhibiting aggregation by 50% relative to a control lacking the compound.
In addition to the following preparative procedures, several examples of in-vitro bioactivity of compounds within the scope of the present invention are indicated. To illustrate, one test which is used to evaluate fibrinogen receptor antagonist activity is based on evaluation of inhibition of ADP-stimulated platelets. Aggregation requires that fibrinogen bind to and occupy the platelet fibrinogen receptor site. Inhibitors of fibrinogen binding inhibit aggregation. In the ADP-stimulated platelet aggregation assay used to determine inhibition associated with the compounds claimed in the instant invention, human platelets are isolated from fresh blood, collected into acid citrate/dextrose by differential centrifugation followed by gel filtration on Sepharose 2B in divalent ion-free Tyrode's buffer (pH 7.4) containing 2% bovine serum albumin.

Row | IC50 | Compound
1 | 5000 nM | O=C(O)CCNC(=O)c1cc2c(s1)C(=O)N(CCC1CCNCC1)C2=O [1-6, 5-(2-Carboxyethyl)carboxamide-[N-2-(4-Piperidinyl)ethyl]-2,3-thiophenedicarboximide]
2 | 33000 nM | CCCCS(=O)(=O)N[C@@H](CNC(=O)c1csc2c1C(=O)N(CCC1CCNCC1)CC2)C(=O)O [2-11, 3-[3-(2(S)-n-Butylsulfonylamino)propionic acid]carboxamide-4-oxo-5-[2-(4-piperidinyl)ethyl]-4,5,6,7-tetrahydro[3,2-c]pyridine]
3 | 8 nM | CCCCS(=O)(=O)N[C@@H](CNC(=O)c1cc2c(s1)CCN(CCC1CCNCC1)C2=O)C(=O)O [2-9, 2-[3-(2(S)-n-butylsulfonylamino)propionic acid]carboxamide-4-oxo-5-[2-(4-piperidinyl)ethyl]-4,5,6,7-tetrahydro[3,2-c]pyridine]
4 | 8 nM | O=C(NC[C@H](NS(=O)(=O)c1ccccc1)C(=O)O)c1cc2c(s1)CCN(CCC1CCNCC1)C2=O [2-14, 2-[3-(2(S)-Phenylsulfonylamino)propionic acid]carboxamide-4-oxo-5-[2-(4-piperidinyl)ethyl]-4,5,6,7-tetrahydro[3,2-c]pyridine]
5 | 220 nM | C[C@H](CC(=O)O)NC(=O)c1cc2c(s1)CCN(CCC1CCNCC1)C2=O [2-21, 2-[3-(3(R)-Methyl)propionic acid]carboxamide-4-oxo-5-[2-(4-piperidinyl)ethyl]-4,5,6,7-tetrahydrothieno[3,2-c]pyridine]
6 | 25 nM | O=C(NCc1ccccc1)N[C@@H](CNC(=O)c1cc2c(s1)CCN(CCC1CCNCC1)C2=O)C(=O)O [2-17, 2-[3-(2(S)-benzylureido)propionic acid]carboxamide-4-oxo-5-[2-(4-piperidinyl)ethyl]-4,5,6,7-tetrahydro[3,2-c]pyridine]
7 | 260 nM | O=C(O)CCCC(=O)c1cc2c(s1)CCN(CCC1CCNCC1)C2=O [4-3]
8 | 150 nM | O=C(O)CCNC(=O)c1cc2c(s1)CCN(CCC1CCNCC1)C2=O [3-3, 2-[3-(Propionic acid)]carboxamide-4-oxo-5-[2-(piperidinyl)]ethyl-4,5,6,7-tetrahydrothieno[3,2-c]pyridine]

System: cell attachment-promoting effects of fibronectin and vitronectin
Assay: not given
Conditions: background section; cited from earlier work

Row | Compound | activity of the tripeptide
9 | arginine-glycine-aspartic acid [Arg-Gly-Asp] | low activity

System: gp IIb/IIIa complex
Assay: not given
Conditions: literature, background section; cited from earlier work

Row | Compound | affinity for the gp IIb/IIIa complex
10 | Echistatin | high affinity
